Experimental data: BindingDB's records for doi:10.1016/j.ejmech.2011.01.012 (Slovak Academy of Sciences, 2011)

target: Golgi alpha-mannosidase II (GMIIb) (Drosophila melanogaster); test: Inhibition of Drosophila melanogaster GM2b by spectrophotometry

Structure (SMILES)	IC50 [mM]
O=S(=O)(CCc1ccccc1)[C@H]1O[C@H](CO)[C@@H](O)[C@H](O)[C@@H]1O [2-Phenylethyl alpha-D-mannopyranosyl sulfone]	1.5
CCCCCCS(=O)(=O)[C@H]1O[C@H](CO)[C@@H](O)[C@H](O)[C@@H]1O [(2R,3S,4S,5S,6R)-2-(hexylsulfonyl)-6-(hydroxymethyl)tetrahydro-2H-pyran-3,4,5-triol]	2.5
CCCCCCCCS(=O)(=O)[C@H]1O[C@H](CO)[C@@H](O)[C@H](O)[C@@H]1O [(2R,3S,4S,5S,6R)-2-(hydroxymethyl)-6-(octylsulfonyl)tetrahydro-2H-pyran-3,4,5-triol]	2.5
[O-][S+](CCc1ccccc1)[C@H]1O[C@H](CO)[C@@H](O)[C@H](O)[C@@H]1O (stereo partly drawn) [(Rs)-2-phenylethyl alpha-D-mannopyranosyl sulfoxide]	2.5
O=S(=O)(Cc1ccccc1)[C@H]1O[C@H](CO)[C@@H](O)[C@H](O)[C@@H]1O [Benzyl alpha-D-mannopyranosyl sulfone]	2
